Laboratory results from US20050037975A1, “Method for treatment of glutamate related disorders” (priority 1997, published 2005).

Columns and labels:
[1] = molecular target: T1, rat liver mitochondrial low Km ALDH (Rattus norvegicus, UniProt P11884); experiment: Liver aldehyde dehydrogenase determined in vivo; conditions: intraperitoneal (IP), liver taken eight hours later
T1 construct: differential centrifugation carried out to isolate the mitochondrial faction; from tissue; host or cells: liver mitochondria of male Sprague-Dawley derived rats
T1 sequence (P11884 20-519): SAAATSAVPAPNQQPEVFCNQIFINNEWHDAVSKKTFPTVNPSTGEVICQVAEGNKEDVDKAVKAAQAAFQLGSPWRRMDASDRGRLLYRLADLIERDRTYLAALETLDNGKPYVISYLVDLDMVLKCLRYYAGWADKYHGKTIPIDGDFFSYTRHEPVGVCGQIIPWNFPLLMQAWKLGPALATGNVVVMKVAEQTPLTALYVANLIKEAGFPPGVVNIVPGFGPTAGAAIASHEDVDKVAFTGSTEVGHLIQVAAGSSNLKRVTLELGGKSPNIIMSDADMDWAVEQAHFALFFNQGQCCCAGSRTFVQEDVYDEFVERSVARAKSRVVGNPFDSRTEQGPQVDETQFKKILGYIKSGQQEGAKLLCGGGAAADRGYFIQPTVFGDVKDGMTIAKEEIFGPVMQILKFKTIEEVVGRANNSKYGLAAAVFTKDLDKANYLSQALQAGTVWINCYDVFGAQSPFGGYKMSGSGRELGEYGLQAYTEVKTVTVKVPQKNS
Procedure: To determine if a compound of formula (I) can inhibit aldehyde dehydrogenase activity in vivo, doses of DETC-Me SO (1.3 mg/kg, 2.6 mg/kg, 5.2 mg/kg, 10.3 mg/kg and 20.6 mg/kg), were administered to male Sprague Dawley derived rats weighing 200-400 g. The rats were bred from a resident colony maintained in the Animal Care Unit at the University of Kansas. Rats were maintained on a 12-hour lights cycle with access to food and water ad lib until the night before an experiment, at which time food was removed. Animals were fasted for 12 hours prior to drug administration.
All experiments were carried out in the morning. Rats were treated with the doses of DETC-Me SO or DETC-Me described above, which were dissolved in polyethylene glycol 200. Eight hours later, the rats were anesthetized with carbon-dioxide and then decapitated. The liver was quickly removed and the low Km aldehyde dehydrogenase determined. Control rats were treated with […] vehicle only, and each control data point also represents an average of four rats.
The liver from drug-treated and control rats was homogenized in 0.25 M sucrose and differential centrifugation was carried out to isolate the mitochondrial fraction. The mitochondria were solubilized with sodium deoxycholate, and mitochondrial low Km and total (high and low) aldehyde dehydrogenase activity determined by the method of S. O. C. Tottmar et al., cited above.

[2] = Carbamoylation of glutathione by DETC-MeSO under physiological conditions
From the text: This rate of reaction was approximate an order of magnitude faster than that of the more familiar α-haloketone functionality.

- dose required to inhibit 50% of the low Km ALDH [1]: 3.6 mg/kg
- conversion to DETC-GS ([2]; GSH 1-6 mM, within 5 minutes): > 95%
- DETC-MeSO remaining ([2]; blood, GSH 1 mM, after 5 minutes): less than 5%
- DETC-MeSO remaining ([2]; liver, after one minute): less than 3%
Structure (SMILES): CCN(CC)C(=O)[S+](C)[O-] (stereo not drawn) [DETC-MeSO, S-Methyl-N,N-Diethylthiolcarbamate Sulfoxide]
- rate of carbamoylation of the sulfhydryl group of glutathione (GSH) ([2]; 37° C., pH 7): 10 M⁻¹ s⁻¹
